These results are taken from patent EP0106571A2, “Prophylactic substance or composition” (priority 1982, dated 1984).

What all share (assay type): cell-based
For one assay, the system named is human cancer cells. As to the kind of experiment: Proliferation suppressive effect of prostaglandins (statement, no method). Particulars: compared with PGEI; no conditions given.
Assay [1] deals with Human osteogenic sarcoma cells. As to the kind of experiment: Colony growth over three weeks with fatty acids or prostaglandins, Amidoschwarz stain. As to the method: Human osteogenic sarcoma cells were seeded into 50 ml Greiner plastic flasks and maintained exactly as explained in Example 4.
At the end of three weeks the culture flasks were stained with a 0.1% Amidoschwarz stain solution.

The subject of assay [2] is MG63 Human osteogenic sarcoma cells. As to the kind of experiment: Colony formation after 7 days with two additions of fatty acid. Particulars: for proliferation suppressive action: higher levels of supplementation, 80 and 100µg/ml. On the procedure:
MG63 Human osteogenic sarcoma cells were seeded in culture flasks as described in Examples 4 and 5. 2,000 cells were seeded in each flask. Duplicate sets of flasks were used for each of the fatty acids tested. The following fatty acids dissolved in standard growth medium were added to the cells in culture, after allowing 2 days for cell attachment, and again after a further 3 days. Each culture therefore had only 2 additions of the relevant fatty acid. The cells were stained and examined at the end of 7 days in culture: • 1. Culture medium only - control. • 2. 5, 10, 20, 40, 60, 80 and 100µg oleic acid respectively /ml culture medium. […] 5; 10, 20, 40, 60, 80 and 100µg LA respectively /ml culture medium. • 4. 5, 10, 20, 40, 60, 80 and […] ALA respectively ./ml culture. medium. • 5. 5, 10, 20, 40, 60, 80 and 100µg/ml AA respectively /ml culture medium. • 6. 5, 10, 20, 40, 60, 80 and 100µg/ml EPA respectively /ml culture medium. • ..7.

Setting [3] is: 5 µg/ml of medium added every second day.
The mark [4] stands for this setting: 20 µg/ml of medium added every second day.

Take `CCCCC[C@H](O)/C=C/[C@@H]1[C@@H](C/C=C\CCCC(=O)O)[C@@H](O)C[C@H]1O` [PGF2a]: the “proliferation suppressive effect on human cancer cells” value with human cancer cells is recorded as “no effect at all”.

On to `CCCCC[C@H](O)/C=C/[C@@H]1[C@@H](CCCCCCC(=O)O)[C@@H](O)C[C@H]1O` [PGF1a], for which, in assay [1] (setting [3]), the “growth achieved relative to control cultures” value is reported as “about the same growth as the control cultures” and the “growth suppressive effect on the cancer cells in culture (summary)” value (from here on “growth suppressive effect”) is “no effect at all”. For the same compound, the “proliferation suppressive effect on human cancer cells” value with human cancer cells is given as “no effect at all”.

As for `CCCCC/C=C\C/C=C\C/C=C\C/C=C\CCCC(=O)O` [AA, arachidonic acid], in assay [1] (setting [4]), the “growth suppressive effect” value is “complete growth suppressive effect”. Further, the “colonies in supplemented cultures” value in assay [1] (20 µg/ml of medium added every second day, 500, 1,000 and 2,000 cell density cultures) was “completely devoid of any colonies”. Further, the “suppressive action on proliferation and colony formation” value in assay [2] (dose series 5 to 100 µg/ml, 2 additions) is “almost equal, progressive, suppressive action”. Further, in assay [2] (levels of supplementation above 40 µg/ml culture medium, 2 additions), the “cell growth and colony formation” value is “completely suppressed”. Also, the “cells or colonies found on microscopic examination” value in assay [2] (supplementation levels between 40 and 100 µg/ml) is “Not a single cell or colony of cells could be found”.

`CCCCC[C@H](O)/C=C/[C@H]1[C@H](O)CC(=O)[C@@H]1CCCCCCC(=O)O` [PGE1, prostaglandin E 1]: the “growth suppressive effect” value in assay [1] (setting [3]) was “more pronounced growth suppressive effect”. In addition, the activity at 5 µg/mL in assay [1] (Homo sapiens, 504 h, 5 µg/ml of medium added every second day, read-out: growth achieved relative to control cultures) was ~25%.

For `CCCCCCCC/C=C\CCCCCCCC(=O)O` [OA, Oleic acid], in assay [1] (setting [4]), the “growth achieved relative to control cultures” value is given as “about the same growth as control cultures” and the “growth suppressive effect” value is “no suppressive effect”. In addition, the densities of colonies entry in assay [2] (all levels of supplementation between 5 and 100µg/ml, 2 additions, compared with culture medium only) is given as “equal densities of colonies”.

On to `CCCCC[C@H](O)/C=C/[C@H]1C=CC(=O)[C@@H]1CCCCCCC(=O)O` [PGA1], for which the “growth suppressive effect” value in assay [1] (setting [3]) is reported as “more pronounced growth suppressive effect”.

Consider `CCCCC/C=C\C/C=C\CCCCCCCC(=O)O` [LA, linoleic acid], for which the “growth suppressive effect” value in assay [1] (setting [4]) was “some growth suppressive effect”. In addition, the activity at 20 µg/mL in assay [1] (Homo sapiens, 504 h, 20 µg/ml of medium added every second day, read-out: growth achieved relative to control cultures) is ~75%. Besides, the proliferation suppressive action entry in assay [2] (2 additions) was “definite proliferation suppressive action”.

For `CC/C=C\C/C=C\C/C=C\CCCCCCCC(=O)O` [ALA, a-linolenic acid, reference compound], in assay [2] (2 additions), the proliferation suppressive action entry is recorded as “definite proliferation suppressive action”.
